Source: patent publication US4959493A, “Carboxycyclopropylglycine and process for producing the same” (Suntory Limited, priority 1987, dated 1990)
Read-outs that look alike come from different tables or passages of the source.

Tests used:
[1] = test system: motoneurons in the isolated spinal cord of a neonatal rat; assay: Depolarization of motoneurons in the isolated spinal cord of a neonatal rat (extracellular records, Evans and Watkins method); format: cell-based; conditions: for Effect of Mg++ ions on depolarizing activity: in the presence of Mg++ ions; for minimal effective concentration: read-out: MEC (minimum effective concentration for causing depolarizations of motoneurons); for Agonist type (glutamate receptor subtype): isolated new-born rat spinal cord; for Specific activity: relative to L-glutamic acid = 1
Protocol: In accordance with the method described in Evans, R. H. and Watkins, J. C., European J. Pharmac., 50 123-129, 1978, the minimum effective concentrations (MEC) of L-glutamic acid and compounds (1), (1a), (1b) and (1c) of the present invention for causing depolarizations of motoneurons in the isolated spinal cord of a neonatal rat under perfusion with an artificial physiological solution ([…] fluid) were measured as extracellular records in the […] root.

[2] = isolated from Aesculus parviflora and Blighia sapida; Fowden et al. 1969; cited from earlier work
[3] = isolated neonatal rat spinal cord perfused with artificial physiological solution, (-) = Ineffective

Compound | Effect of Mg++ ions on depolarizing activity [1] | minimal effective concentration [1, 3] [µM] | Agonist type (glutamate receptor subtype) [1] | Specific activity ([1]; (-) = Ineffective) | Undesired effects [2] | minimal effective concentration ([1]; Rattus norvegicus) [µM] | Potency relative to NMDA ([1]; compared with NMDA activity of 2×10^-5 molar) [times]
N[C@H](C(=O)O)[C@H]1C[C@@H]1C(=O)O [(1a), (2S,3S,4S)-carboxycyclopropylglycine] | Unaffected | 50 | agonist of the kainate type | 5 | hypoglycemia and vomiting | – | –
N[C@H](C(=O)O)[C@H]1C[C@H]1C(=O)O [(1c), (2S,3S,4R)-carboxycyclopropylglycine] | – | 500 | – | 0.5 | hypoglycemia and vomiting | – | –
N[C@@H](CCC(=O)O)C(=O)O [L-Glu, L-glutamic acid, reference compound] | – | – | – | 1 | – | 100 | –
N[C@H](C(=O)O)[C@@H]1C[C@@H]1C(=O)O [Compound (1), (2S,3R,4S)-carboxycyclopropylglycine] | activity disappeared | 1 | agonist of the NMDA type | 100 | – | – | 5
